BindingDB's records for patent US11447504 (Bayer Aktiengesellschaft; Bayer Pharma Aktiengesellschaft; …, 2022)
Where “and” joins values, the source holds several entries; their conditions need not be identical. Equal entries are not always repeated.

Target: T1, Induced myeloid leukemia cell differentiation protein Mcl-1 [K194A,K197A,R201A] (Homo sapiens, UniProt Q07820, K194A/K197A/R201A)
T1 construct: gene MCL1
Assay: MCL-1/Noxa BH3 Peptide (MCL-1 Assay)
Method: The dose-dependent inhibition by the compounds described in this invention of the interaction between MCL-1 and the BH3 domain of Noxa (both human) was determined using a steady state binding competition assay with time-resolved fluorescence energy transfer (TR-FRET) readout. […] The MBP-MCL-1 was purchased from Beryllium (Bedford, Mass., USA). […] The Noxa BH3-derived peptide can be obtained from e.g. Biosyntan (Berlin, Germany).

T1 sequence (Q07820 whole entry K194A/K197A/R201A, looked up): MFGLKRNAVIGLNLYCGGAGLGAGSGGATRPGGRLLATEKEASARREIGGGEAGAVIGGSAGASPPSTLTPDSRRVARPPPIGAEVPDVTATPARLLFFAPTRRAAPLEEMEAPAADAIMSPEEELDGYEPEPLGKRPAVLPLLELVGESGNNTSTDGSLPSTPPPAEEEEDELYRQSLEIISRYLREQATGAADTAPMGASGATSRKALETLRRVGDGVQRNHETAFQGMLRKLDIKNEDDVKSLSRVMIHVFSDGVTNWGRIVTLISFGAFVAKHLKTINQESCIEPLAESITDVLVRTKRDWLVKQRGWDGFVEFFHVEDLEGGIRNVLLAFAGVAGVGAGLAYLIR

Row | Structure (SMILES) | IC50
1 | Cc1c2c(nn1C)N(C)CCCCCn1c(C(=O)O)c(CCCOc3cccc4ccccc34)c3ccc(Cl)c-2c31 [US11447504, Example 71] | 2.2 nM
2 | CCc1c2c(nn1C)N(C)CCCCCn1c(C(=O)O)c(CCCOc3cccc4cc(F)ccc34)c3ccc(Cl)c-2c31 [US11447504, Example 77] | 2.1 nM and 6.4 nM
